What was measured:
[1] = biological target: T1, Avi-KRAS G12V (1-169) GppNHp/RAF1 RBD-3xFLAG (52-151) (Homo sapiens, UniProt P01116, G12V); assay: Raf1-KRAS G12V-GppNHP disruption HTRF assay (Biological Example 1); format: binding
T1 construct: Avi-KRAS G12V (1-169)
In short: (§1)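 Compounds were tested for disruption of KRAS–RAF1 RBD binding by HTRF in 50 mM Tris pH 7.5, 100 mM NaCl, 5 mM MgCl2, 0.1% BSA, 0.01% Tween, 10% DMSO. Protein mix was incubated 1 h at room temperature with shaking, then detection reagents added for another 1 h. Activity expressed as percent of DMSO control.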

[2] = biological target: T2, Avi-KRAS G12R (1-169) GppNHp/RAF1 RBD-3xFLAG (52-151) (Homo sapiens, UniProt P01116, G12R); assay: Raf1-KRAS G12R-GppNHP disruption HTRF assay (Biological Example 1); format: binding
T2 construct: Avi-KRAS G12R (1-169)
T2 sequence (P01116 1-169 isoform P01116-2 G12R): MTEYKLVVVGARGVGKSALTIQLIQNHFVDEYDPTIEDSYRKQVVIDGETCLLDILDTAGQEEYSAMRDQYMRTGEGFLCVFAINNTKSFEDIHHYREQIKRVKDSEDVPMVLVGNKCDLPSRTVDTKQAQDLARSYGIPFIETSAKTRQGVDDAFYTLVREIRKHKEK
In short: as §1

[3] = biological target: T3, Avi-KRAS G12D (1-169) GppNHp/RAF1 RBD-3xFLAG (52-151) (Homo sapiens, UniProt P01116, G12D); assay: Raf1-KRAS G12D-GppNHP disruption HTRF assay (Biological Example 1); format: binding
T3 construct: Avi-KRAS G12D (1-169)
T3 sequence (P01116 1-169 isoform P01116-2 G12D): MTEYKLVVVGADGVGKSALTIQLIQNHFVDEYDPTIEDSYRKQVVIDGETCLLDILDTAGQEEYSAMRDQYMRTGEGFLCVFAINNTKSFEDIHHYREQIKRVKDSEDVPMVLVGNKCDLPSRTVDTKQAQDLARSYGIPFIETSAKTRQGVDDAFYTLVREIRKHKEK
In short: as §1

[4] = biological target: T4, Avi-KRAS WT (1-169) GppNHp/RAF1 RBD-3xFLAG (52-151) (Homo sapiens, UniProt P01116); assay: Raf1-KRAS WT-GppNHP disruption HTRF assay (Biological Example 1); format: binding
T4 construct: Avi-KRAS WT (1-169)
T4 sequence (P01116 1-169 isoform P01116-2): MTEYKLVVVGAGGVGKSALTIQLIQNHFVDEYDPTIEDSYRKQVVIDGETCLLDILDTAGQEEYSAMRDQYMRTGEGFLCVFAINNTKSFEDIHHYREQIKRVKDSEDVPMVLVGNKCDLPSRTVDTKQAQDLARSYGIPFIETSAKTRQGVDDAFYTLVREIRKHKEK
In short: as §1

GP2d cells (KRAS G12D) = assay: Cell-based pERK HTRF assay in GP2d cell (Biological Example 2); conditions: GP2d, GP2d (KRAS G12D) cells, pERK HTRF
In short: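 HTRF read-out of pERK (excitation 320 nm, emission 615 nm) after lysates sat 4–24 h at room temperature with Eu cryptate and d2 antibodies.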

SW620 cells (KRAS G12V) = assay: Cell-based pERK HTRF assay in SW620 cell (Biological Example 4); conditions: Homo sapiens, SW-620, SW620 (KRAS G12V) cells, pERK HTRF
In short: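 This assay measures inhibition of ERK phosphorylation downstream of KRAS G12V in intact SW620 cells. Compounds are applied for 4 h over nine half-log concentrations starting at 1 μM, and pERK is quantified by HTRF.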

[5] = KRAS G12V, GppNHp-loaded, class symbols
[6] = KRAS G12R, GppNHp-loaded, class symbols
[7] = KRAS G12D, GppNHp-loaded, class symbols
[8] = KRAS WT, GppNHp-loaded, class symbols
[9] = KRAS G12V, GppNHp-loaded, Table 11
[10] = KRAS G12R, GppNHp-loaded, Table 11
[11] = KRAS G12D, GppNHp-loaded, Table 11
[12] = KRAS WT, GppNHp-loaded, Table 11

T1 sequence (P01116 1-169 isoform P01116-2 G12V): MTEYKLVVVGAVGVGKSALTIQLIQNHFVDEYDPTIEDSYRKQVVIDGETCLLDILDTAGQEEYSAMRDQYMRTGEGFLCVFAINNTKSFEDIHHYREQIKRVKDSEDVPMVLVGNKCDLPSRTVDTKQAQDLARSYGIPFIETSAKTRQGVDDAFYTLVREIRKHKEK

IC50 [1, 5]	IC50 [2, 6]	IC50 [3, 7]	IC50 [4, 8]	IC50 (GP2d cells (KRAS G12D); class symbols)	IC50 (SW620 cells (KRAS G12V); class symbols)	IC50 [1, 9]	IC50 [2, 10]	IC50 [3, 11]	IC50 [4, 12]	IC50 (GP2d cells (KRAS G12D))	IC50 (SW620 cells (KRAS G12V))	IC50 ([1]; KRAS G12V-GppNHp/RAF1 RBD HTRF)	IC50 ([2]; KRAS G12R-GppNHp/RAF1 RBD HTRF)	IC50 ([3]; KRAS G12D-GppNHp/RAF1 RBD HTRF)	IC50 ([4]; KRAS WT-GppNHp/RAF1 RBD HTRF)	SMILES
> 10000 nM	> 10000 nM	1000 to 10000 nM	1000 to 10000 nM	< 100 nM	100 to 1000 nM	–	–	–	–	–	–	–	–	–	–	COC(=O)N1CC[C@H]2[C@@H]1CN2c1nc(OC[C@@]23CCCN2C[C@H](F)C3)nc2c(F)c(-c3ccc(F)c4sc(N)c(C#N)c34)c(C(F)(F)F)cc12 (atropisomer, axis not shown) [Compound 716]
–	–	–	–	–	–	100 to 1000 nM	100 to 1000 nM	100 to 1000 nM	100 to 1000 nM	< 100 nM	< 100 nM	–	–	–	–	CC(=O)N1C[C@@H](F)[C@@H](N(C)c2nc(OC[C@@]34CCCN3C[C@H](F)C4)nc3c(F)c(-c4ccc(F)c5sc(N)c(C#N)c45)c(C(F)(F)F)cc23)C1 [Compound 237]
100 to 1000 nM	100 to 1000 nM	100 to 1000 nM	100 to 1000 nM	< 100 nM	< 100 nM	–	–	–	–	–	–	–	–	–	–	CCN(c1nc(OC[C@@]23CCCN2C[C@H](F)C3)nc2c(F)c(-c3ccc(F)c4sc(N)c(C#N)c34)c(C(F)(F)F)cc12)[C@H]1C[C@@H](C)N(C(=O)c2ccon2)C1 (atropisomer, axis not shown) [Compound 783]
100 to 1000 nM	100 to 1000 nM	100 to 1000 nM	100 to 1000 nM	< 100 nM	< 100 nM	–	–	–	–	–	–	–	–	–	–	C=C(F)C(=O)N1CC[C@@H](N(C)c2nc(OC[C@@]34CCCN3C[C@H](F)C4)nc3c(F)c(-c4ccc(F)c5sc(N)c(C#N)c45)c(C(F)(F)F)cc23)[C@H]1C [Compound 669]
–	–	–	–	–	–	100 to 1000 nM	100 to 1000 nM	100 to 1000 nM	100 to 1000 nM	< 100 nM	100 to 1000 nM	–	–	–	–	C[C@]1(O)CCN(c2nc(OC[C@@]34CCCN3C[C@H](F)C4)nc3c(F)c(-c4ccc(F)c5sc(N)c(C#N)c45)c(C(F)(F)F)cc23)C1 [Compound 242]
–	–	–	–	–	–	100 to 1000 nM	100 to 1000 nM	100 to 1000 nM	100 to 1000 nM	< 100 nM	< 100 nM	–	–	–	–	CN1CCN(c2nc(OC[C@@]34CCCN3C[C@H](F)C4)nc3c(F)c(-c4ccc(F)c5sc(N)c(C#N)c45)c(C(F)(F)F)cc23)CCC1=O [Compound 271]
–	–	–	–	–	–	–	–	–	–	< 100 nM	< 100 nM	1000 to 10000 nM	100 to 1000 nM	100 to 1000 nM	1000 to 10000 nM	N#Cc1c(N)sc2c(F)ccc(-c3c(C(F)(F)F)cc4c(N5CCc6oncc6C5)nc(OC[C@@]56CCCN5C[C@H](F)C6)nc4c3F)c12 [Compound 507]
–	–	–	–	–	–	–	–	–	–	< 100 nM	< 100 nM	1000 to 10000 nM	1000 to 10000 nM	1000 to 10000 nM	100 to 1000 nM	CN1C[C@H](N(C)c2nc(OC[C@@]34CCCN3C[C@H](F)C4)nc3c(F)c(-c4ccc(F)c5sc(N)c(C#N)c45)c(C(F)(F)F)cc23)CCC1=O [Compound 441]
–	–	–	–	–	–	100 to 1000 nM	100 to 1000 nM	100 to 1000 nM	100 to 1000 nM	< 100 nM	< 100 nM	–	–	–	–	CN(c1nc(OC[C@@]23CCCN2C[C@H](F)C3)nc2c(F)c(-c3ccc(F)c4sc(N)c(C#N)c34)c(C(F)(F)F)cc12)[C@@H]1CCCOC1 [Compound 274]
–	–	–	–	–	–	–	–	–	–	< 100 nM	< 100 nM	< 100 nM	< 100 nM	< 100 nM	100 to 1000 nM	CCC(=O)N1C[C@@H](N(CC)c2nc(OC[C@@]34CCCN3C[C@H](F)C4)nc3c(F)c(-c4ccc(F)c5sc(N)c(C#N)c45)c(C(F)(F)F)cc23)C[C@@H]1C [Compound 464]
< 100 nM	< 100 nM	< 100 nM	< 100 nM	< 100 nM	< 100 nM	–	–	–	–	–	–	–	–	–	–	CCN(c1nc(OC[C@@]23CCCN2C[C@H](F)C3)nc2c(F)c(-c3ccc(F)c4sc(N)c(C#N)c34)c(C(F)(F)F)cc12)[C@H]1CCN(C(=O)C2CCOCC2)C1 (atropisomer, axis not shown) [Compound 578]
< 100 nM	< 100 nM	< 100 nM	< 100 nM	< 100 nM	< 100 nM	–	–	–	–	–	–	–	–	–	–	CCN(c1nc(OC[C@@]23CCCN2C[C@H](F)C3)nc2c(F)c(-c3ccc(F)c4sc(N)c(C#N)c34)c(C(F)(F)F)cc12)[C@H]1CCN(C(=O)OC2CCOCC2)C1 (atropisomer, axis not shown) [Compound 684]
–	–	–	–	–	–	1000 to 10000 nM	1000 to 10000 nM	1000 to 10000 nM	1000 to 10000 nM	100 to 1000 nM	100 to 1000 nM	–	–	–	–	N#CCC[C@H]1CCN(c2nc(OC[C@@]34CCCN3C[C@H](F)C4)nc3c(F)c(-c4ccc(F)c5sc(N)c(C#N)c45)c(C(F)(F)F)cc23)C1 [Compound 214]
–	–	–	–	–	–	–	–	–	–	< 100 nM	< 100 nM	100 to 1000 nM	100 to 1000 nM	100 to 1000 nM	100 to 1000 nM	CCC(=O)N1CC[C@@H]2[C@H]1CN2c1nc(OC[C@@]23CCCN2C[C@H](F)C3)nc2c(F)c(-c3ccc(F)c4sc(N)c(C#N)c34)c(C(F)(F)F)cc12 [Compound 515]
100 to 1000 nM	< 100 nM	< 100 nM	< 100 nM	< 100 nM	< 100 nM	–	–	–	–	–	–	–	–	–	–	CCN(CC)C(=O)N1CCC(N(CC)c2nc(OCC34CCCN3CC(F)C4)nc3c(F)c(-c4ccc(F)c5sc(N)c(C#N)c45)c(C(F)(F)F)cc23)C1 (stereo not drawn) [Compound 572]
< 100 nM	100 to 1000 nM	< 100 nM	100 to 1000 nM	< 100 nM	< 100 nM	–	–	–	–	–	–	–	–	–	–	CCN(c1nc(OC[C@@]23CCCN2C[C@H](F)C3)nc2c(F)c(-c3ccc(F)c4sc(N)c(C#N)c34)c(C(F)(F)F)cc12)[C@H]1C[C@H](COC)N(C(C)=O)C1 (atropisomer, axis not shown) [Compound 647]
–	–	–	–	–	–	100 to 1000 nM	100 to 1000 nM	100 to 1000 nM	100 to 1000 nM	< 100 nM	< 100 nM	–	–	–	–	N#Cc1c(N)sc2c(F)ccc(-c3c(C(F)(F)F)cc4cnc(OC[C@@]56CCCN5C[C@H](F)C6)nc4c3F)c12 [Compound 213, 2-amino-7-fluoro-4-[8-fluoro-2-[[(2R,8S)-2-fluoro-1,2,3,5,6,7-hexahydropyrrolizin-8-yl]methoxy]-6-(trifluoromethyl)quinazolin-7-yl]benzothiophene-3-carbonitrile]
–	–	–	–	–	–	100 to 1000 nM	100 to 1000 nM	100 to 1000 nM	100 to 1000 nM	< 100 nM	< 100 nM	–	–	–	–	CC(=O)N(C)CCN(C)c1nc(OC[C@@]23CCCN2C[C@H](F)C3)nc2c(F)c(-c3ccc(F)c4sc(N)c(C#N)c34)c(C(F)(F)F)cc12 [Compound 255]
–	–	–	–	–	–	100 to 1000 nM	100 to 1000 nM	100 to 1000 nM	100 to 1000 nM	< 100 nM	< 100 nM	–	–	–	–	N#Cc1c(N)sc2c(F)ccc(-c3c(C(F)(F)F)cc4c(N5CC(F)(F)C5)nc(OC[C@@]56CCCN5C[C@H](F)C6)nc4c3F)c12 [Compound 205]
< 100 nM	< 100 nM	< 100 nM	< 100 nM	< 100 nM	< 100 nM	–	–	–	–	–	–	–	–	–	–	C/C=C\C(=O)N1CC[C@H](N(CC)c2nc(OC[C@@]34CCCN3C[C@H](F)C4)nc3c(F)c(-c4ccc(F)c5sc(N)c(C#N)c45)c(C(F)(F)F)cc23)C1 (atropisomer, axis not shown) [Compound 677]
–	–	–	–	–	–	–	–	–	–	100 to 1000 nM	100 to 1000 nM	100 to 1000 nM	100 to 1000 nM	100 to 1000 nM	100 to 1000 nM	N#Cc1c(N)sc2c(F)ccc(-c3c(C(F)(F)F)cc4c(N5CCn6cnnc6C5)nc(OC[C@@]56CCCN5C[C@H](F)C6)nc4c3F)c12 [Compound 294]
100 to 1000 nM	< 100 nM	< 100 nM	< 100 nM	< 100 nM	< 100 nM	–	–	–	–	–	–	–	–	–	–	CCN(c1nc(OC[C@@]23CCCN2C[C@H](F)C3)nc2c(F)c(-c3ccc(F)c4sc(N)c(C#N)c34)c(C(F)(F)F)cc12)[C@H]1CCN(C(=O)[C@@H](C)OC)[C@@H]1C (atropisomer, axis not shown) [Compound 806]

— patent US20260042764A1, “COMPOSITIONS AND METHODS FOR INHIBITION OF KRAS” (TheRas, Inc., priority 2022, published 2026)
